Where two headings read alike, the source gives them in different places.
Assays:
human hepatocytes [1] = experiment: 4-ABP- and HAA-DNA adduct formation in freshly cultured human hepatocytes; conditions: carcinogen 10 μM, 24 h incubation
human hepatocytes [2] = experiment: 4-ABP and HAA biotransformation in human hepatocytes; type: in vitro ADME; conditions: PhIP 10 μM in human hepatocytes
human hepatocytes [3] = conditions: cited from earlier work; for dose metabolized in human hepatocyte preparations: 10 μM dose; for dose that underwent metabolism: human hepatocytes, 10 μM, after 24 h incubation, previous studies
P450 1A2 = conditions: human versus rat P450 1A2; cited from earlier work
rat hepatocytes = conditions: cited from earlier work; for extent of metabolism in rat hepatocytes: even after 24 h; for N-oxidation products as share of the dose: rat hepatocytes
[4] = tested on: hypoxanthine phosphoribosyl transferase (hprt) gene of Chinese hamster ovary cells (CHO); type: cell-based; conditions: estimated from ref 53, 69-71
rat = rat model; cited from earlier work
[5] = tested on: colon of C57BL/6 mice (Big Blue mouse); conditions: cited from earlier work
CDF1 mice = conditions: cited from earlier work
colon of C57BL/6 mice = conditions: cited from earlier work
rodents = conditions: cited from earlier work

Structure (SMILES)	DNA adduct formation, Adducts per 10^7 Bases (human hepatocytes [1]; human hepatocytes donor HH A)	DNA adduct formation, Adducts per 10^7 Bases (human hepatocytes [1]; human hepatocytes donor HH B)	DNA adduct formation, Adducts per 10^7 Bases (human hepatocytes [1]; human hepatocytes donor HH C)	DNA adduct formation, Adducts per 10^7 Bases (human hepatocytes [1]; human hepatocytes donor HH D)	DNA adduct formation, Adducts per 10^7 Bases (human hepatocytes [1]; human hepatocytes donor HH G)	DNA adduct formation, Adducts per 10^7 Bases (human hepatocytes [1]; human hepatocytes donor HH H)	DNA adduct formation, Adducts per 10^7 Bases (human hepatocytes [1]; human hepatocytes donor HH F)	further results
Cn1c(Nc2nc3c(=O)[nH]c(N)nc3n2[C@H]2C[C@H](O)[C@@H](CO)O2)nc2c3cccnc3ccc21 [dG-C8-IQ, N-(deoxyguanosin-8-yl)-IQ]	9.8 ± 1.1 Adducts per 10^7 Bases	10.3 ± 0.6 Adducts per 10^7 Bases	18.3 ± 0.8 Adducts per 10^7 Bases	26.2 ± 1.9 Adducts per 10^7 Bases	13.5 ± 1.5 Adducts per 10^7 Bases	7.0 ± 2.2 Adducts per 10^7 Bases	–	–
Cn1c(=NO)n([C@@H]2O[C@H](C(=O)O)[C@@H](O)[C@H](O)[C@H]2O)c2ncc(-c3ccccc3)cc21 [HONH-N3-PhIP]	–	–	–	–	–	–	–	level of metabolite formed, lower than HON-PhIP-N^2-Gl (human hepatocytes [2]): ~ 10 fold
Cc1cnc2ccc3c(nc(N)n3C)c2n1 [MeIQx, 2-amino-3,8-dimethylimidazo[4,5-f]quinoxaline]	–	–	–	–	–	–	–	dose metabolized in human hepatocyte preparations (human hepatocytes [3]): > 75%; dose that underwent metabolism (human hepatocytes [3]): up to 97%; catalytic efficiency of N-oxidation, human P450 1A2 superior to rat P450 1A2 (P450 1A2): 11 fold; extent of metabolism in rat hepatocytes (rat hepatocytes): poorly metabolized; N-oxidation products as share of the dose (rat hepatocytes): less than 2%; hprt mutants induced by one dG-C8 adduct per 10^7 bases in the CHO genome ([4]; dose concentration 1.5 μM): about 1.5 hprt mutants per one million c
Cn1c(N)nc2ncc(-c3ccccc3)cc21 [PhIP, 2-amino-1-methyl-6-phenylimidazo[4,5-b]pyridine]	–	–	–	–	–	–	–	dose metabolized in human hepatocyte preparations (human hepatocytes [3]): > 75%; dose that underwent metabolism (human hepatocytes [3]): up to 97%; catalytic efficiency of N-oxidation, human P450 1A2 superior to rat P450 1A2 (P450 1A2): 19 fold; extent of metabolism in rat hepatocytes (rat hepatocytes): poorly metabolized; N-oxidation products as share of the dose (rat hepatocytes): less than 2%; hprt mutants induced by one dG-C8 adduct per 10^7 bases in the CHO genome ([4]; dose concentration 1.2 μM): ~2.8 hprt mutants per one million c
Nc1nc2c(nc(Nc3ccc(-c4ccccc4)cc3)n2[C@H]2C[C@H](O)[C@@H](CO)O2)c(=O)[nH]1 [dG-C8-4-ABP, N-(Deoxyguanosin-8-yl)-4-aminobiphenyl]	–	150 Adducts per 10^7 Bases	38.8 ± 4.8 Adducts per 10^7 Bases	100 Adducts per 10^7 Bases	87.9 ± 8.3 Adducts per 10^7 Bases	70.0 ± 5.8 Adducts per 10^7 Bases	49.0 ± 1.7 Adducts per 10^7 Bases	–
Cn1c(Nc2nc3c(=O)[nH]c(N)nc3n2[C@H]2C[C@H](O)[C@@H](CO)O2)nc2ncc(-c3ccccc3)cc21 [dG-C8-PhIP, N-(deoxyguanosin-8-yl)-PhIP]	13.4 ± 1.7 Adducts per 10^7 Bases	22.0 Adducts per 10^7 Bases	7.5 ± 1.6 Adducts per 10^7 Bases	7.7 ± 1.0 Adducts per 10^7 Bases	30.6 ± 2.4 Adducts per 10^7 Bases	6.0 ± 1.0 Adducts per 10^7 Bases	14.0 ± 0.6 Adducts per 10^7 Bases	–
Nc1nc2c(nc(Nc3ccc4c(n3)[nH]c3ccccc34)n2[C@H]2C[C@H](O)[C@@H](CO)O2)c(=O)[nH]1 [dG-C8-AαC, N-(Deoxyguanosin-8-yl)-AαC]	–	32.5 ± 1.8 Adducts per 10^7 Bases	44.4 ± 5.6 Adducts per 10^7 Bases	109 ± 6.4 Adducts per 10^7 Bases	82.0 ± 15.4 Adducts per 10^7 Bases	31.4 ± 3.3 Adducts per 10^7 Bases	72.0 ± 5.9 Adducts per 10^7 Bases	–
Nc1ccc2c(n1)[nH]c1ccccc12 [AαC, 2-amino-9H-pyrido[2,3-b]indole]	–	–	–	–	–	–	–	hepatocarcinogenicity (rat): not a hepatocarcinogen; lacI transgene mutagenicity [5]: potent lacI transgene mutagen; tumor induction (CDF1 mice): causes liver and blood vessel tumors; hprt mutants induced by one dG-C8 adduct per 10^7 bases in the CHO genome ([4]; dose concentration 1.5 μM): ~2.5 hprt mutants per one million c; aberrant crypt foci (colon of C57BL/6 mice): induces aberrant crypt foci
Cc1cnc2ccc3c(nc(Nc4nc5c(=O)[nH]c(N)nc5n4[C@H]4C[C@H](O)[C@@H](CO)O4)n3C)c2n1 [dG-C8-MeIQx, N-(deoxyguanosin-8-yl)-MeIQx]	3.4 ± 0.3 Adducts per 10^7 Bases	12.4 ± 0.6 Adducts per 10^7 Bases	13.9 ± 0.2 Adducts per 10^7 Bases	12.2 ± 3.5 Adducts per 10^7 Bases	16.1 ± 1.0 Adducts per 10^7 Bases	5.1 ± 0.1 Adducts per 10^7 Bases	19.0 ± 1.9 Adducts per 10^7 Bases	–
Nc1ccc(-c2ccccc2)cc1 [4-ABP, 4-aminobiphenyl]	–	–	–	–	–	–	–	cancer induction (rodents): induces cancer of the urinary bladder, liver, and mammary gland; hprt mutants induced by one dG-C8 adduct per 10^7 bases in the CHO genome ([4]; dose concentration 2 μM): ~ 0.7 hprt mutants per one million c
